Results reported in US10351883B2, “Compounds for increasing lipid synthesis and storage” (NUtech Ventures, priority 2015, dated 2019).
Read-outs that look alike come from different tables or passages of the source.

Tested on: Chlamydomonas reinhardtii
Test: 8-point dose response assay (0.25-30 μM)
Type: cell-based
Set-up: reference not given here
Conditions: for Dose Response Assay 0.25 μM: 0.25 μM compound; for Dose Response Assay 0.625 μM: 0.625 μM compound; for Dose Response Assay 2.5 μM: 2.5 μM compound; for Dose Response Assay 5 μM: 5 μM compound; for Dose Response Assay 10 μM: 10 μM compound; for Dose Response Assay 15 μM: 15 μM compound; for Dose Response Assay 30 μM: 30 μM compound
Protocol: A large scale in vivo high throughput screen (HTS) was performed to identify small compounds that stimulate lipid production and accumulation using the model organism Chlamydomonas reinhardtii. The HTS employed a 384-well microplate format in which cells were allowed to grow in the presence of the test compounds at 10 μM final concentration for 72 hours.
The screening library included 43,736 compounds (ChemBridge, Corp). […] A sub-set of compounds were retested using an 8-point dose response assay (0.25-30 μM). Compounds were further assessed visually using a Nikon Ti-inverted microscope (60×) to reconfirm lipid droplet accumulation was induced.

[1] = 8-point dose response, Nile Red lipid accumulation
[2] = 1.25 μM compound, 8-point dose response, Nile Red lipid accumulation

Row | SMILES | Dose Response Assay 0.25 μM [1] | Dose Response Assay 0.625 μM [1] | Dose Response Assay 1.25 μM [2] | Dose Response Assay 2.5 μM [1] | Dose Response Assay 5 μM [1] | Dose Response Assay 10 μM [1] | Dose Response Assay 15 μM [1] | Dose Response Assay 30 μM [1] | Dose Response Assay 1.25 μM
1 | Cc1ccc(S(=O)(=O)c2ccc(-c3ccc([N+](=O)[O-])cc3)cc2)cc1 [Compound 2] | 0.96 | 1.01 | 0.94 | 0.99 | 1.1 | 1.53 | 1.34 | 2.11 | 
2 | Cc1cccc(N2CCN(Cc3ccc([N+](=O)[O-])cc3)CC2)c1C [Compound 5] | 0.97 | 0.85 | 0.80 | 0.91 | 1.28 | 2.07 | 1.96 | 2.81 | 
3 | O=C(Nc1ccc([N+](=O)[O-])cc1)c1ccccc1Cl [Compound 11] | 1.02 | 1.12 | 0.97 | 0.93 | 1.46 | 2.78 | 2.28 | 1.78 | 
4 | Cc1c(C(=O)Nc2ccc(F)c(F)c2)cccc1[N+](=O)[O-] [Compound 17] | 1.09 | 1.03 | 0.89 | 0.89 | 1.07 | 0.92 | 1.04 | 1.67 | 
5 | CC(=O)Nc1ccc(S(=O)(=O)Nc2cc([N+](=O)[O-])ccc2C)cc1 [Compound 18] | 1.01 | 0.97 | 0.89 | 1.13 | 1.17 | 1.19 | 1.31 | 1.29 | 
6 | CC(=O)c1nc2cc([N+](=O)[O-])ccc2n1Cc1ccccc1 [Compound 23] | 1.02 | 1 | 0.79 | 0.78 | 1.04 | 1.1 | 1.43 | 1.15 | 
7 | COc1ccc(C(=O)NCCN2CCOCC2)cc1[N+](=O)[O-] [Compound 24] | 1.13 | 0.87 | 0.84 | 0.97 | 0.99 | 1.18 | 1.19 | 1.25 | 
8 | C=CCn1c(SCC(=O)O)nnc1-c1ccc([N+](=O)[O-])cc1 [Compound 25] | 1.15 | 1.13 | 0.99 | 1.02 | 1 | 1 | 1.33 | 1.34 | 
9 | Cc1ccsc1C=C(C#N)c1nc(-c2ccc([N+](=O)[O-])cc2)cs1 [Compound 30] | 1.15 | 1.05 | 1.16 | 0.84 | 0.99 | 0.82 | 1.37 | 1.73 | 
10 | Cc1cc(C)c(NC(=O)COc2ccccc2[N+](=O)[O-])c(C)c1 [Compound 35] | 1.09 | 1.49 | 1.23 | 1.96 | 1.91 | 2.65 | 2.5 | 2.51 | 
11 | O=C(Nc1ccc(Cc2ccncc2)cc1)c1ccc([N+](=O)[O-])cc1Cl [Compound 37] | 1.04 | 0.97 | 1.39 | 1.85 | 1.93 | 1.76 | 1.16 | 1.15 | 
12 | O=C(Nc1ccc([N+](=O)[O-])cc1)c1cccc(Cl)c1Cl [Compound 38] | 1.06 | 1.38 | 1.23 | 2.23 | 2.64 | 2.94 | 2.61 | 2 | 
13 | O=[N+]([O-])c1ccccc1CN1CCN(CC2CC3C=CC2C3)CC1 (stereo not drawn) [Compound 39] | 1.17 | 1.13 | 0.99 | 1.18 | 1.18 | 0.88 | 1.57 | 1.38 | 
14 | COc1ccc(C(=O)c2ccc(N3CCN(C)CC3)c([N+](=O)[O-])c2)cc1 [Compound 45] | 0.93 | 0.99 | 1.57 | 2.3 | 3.61 | 2.02 | 2.06 | 1.56 | 
15 | Cc1ccc(C(=O)c2ccc(N3CCN(C)CC3)c([N+](=O)[O-])c2)cc1 [Compound 46] | 1.23 | 0.96 | 0.94 | 1.61 | 2.31 | 2.75 | 2.63 | 1.78 | 
16 | Cc1c(NC(=O)COc2ccc(Br)cc2)cccc1[N+](=O)[O-] [Compound 47] | 0.90 | 0.81 | 0.91 | 1.3 | 0.95 | 1.37 | 1.27 | 1.19 | 
17 | O=C(Nc1ccccc1C(=O)NCc1ccccc1)c1ccc([N+](=O)[O-])cc1 [Compound 53] | 1.06 | 1.38 | 1.13 | 1.1 | 1.42 | 1.57 | 1.61 | 2.49 | 
18 | Cc1ccc(C(=O)Nc2ccccc2C(=O)NC(C)C)cc1[N+](=O)[O-] [Compound 54] | 1.05 | 1.53 | 2.13 | 2.32 | 2.79 | 1.73 | 1.78 | 1.58 | 
19 | Cc1c(C(=O)Nc2ccccc2C(=O)NCc2ccccc2)cccc1[N+](=O)[O-] [Compound 55] | 1.3 | 1.77 | 2.01 | 2.27 | 2.23 | 2.04 | 2.26 | 2.77 | 
20 | O=C(Nc1ccc([N+](=O)[O-])cc1)c1c(F)c(F)c(F)c(F)c1F [Compound 56] | 1.2 | 1.2 | 1.34 | 1.8 | 2.58 | 2.71 | 1.74 | 1.92 | 
21 | CCC1CCCCN1C(=O)c1ccc(Cl)cc1[N+](=O)[O-] (stereo not drawn) [Compound 57] | 0.99 | 1.06 | 1.01 | 0.90 | 1.28 | 1.11 | 1.15 | 1.87 | 
22 | O=C1CC(N2CCc3ccccc3C2)C(=O)N1c1ccc([N+](=O)[O-])cc1 (stereo not drawn) [Compound 58] | 1.06 | 0.94 | 1.14 | 0.90 | 1.22 | 1.15 | 1.42 | 1.56 | 
23 | CCOc1c(Cl)cc(C(=O)Nc2cccc([N+](=O)[O-])c2)cc1Cl [Compound 61] | 0.90 | 0.96 | 0.92 | 0.95 | 1.04 | 0.91 | 1.24 | 1.14 | 
24 | COc1ccccc1N1CCN(Cc2ccc(Cl)cc2)CC1 [Compound 68] | 1.07 | 1.05 |  | 2.15 | 2.1 | 1.95 | 2.74 | 2.03 | 1.28
